Laboratory results published in patent US7119262B1, “Production of transgenic poinsettia” (priority 1997, dated 2006).
Like-named read-outs stand apart in the source and are kept apart here. Where no end group is shown, it is not given here.

What was measured:
[1] = test system: Phytophthora parasitica (petunia)
Fusarium graminearum = details: non-germinated spores, 24 hrs
Thielaviopsis basicola = details: 24 h
Botrytis cinerea = details: 24 h
Rhyzoctonia solani R2 = details: 24 h
Pseudomonas syringae = details: 24 h
Erwinia carotovora = details: 24 h
[2] = test system: bacterial and fungal phytopathogens; assay: In vitro anti-microbial activity of lytic peptides (statement in words); type: cell-based
Bemisia = assay: Whitefly artificial feeding study with tryptamine-supplemented diets; type: in vivo, Bemisia tabaci; details: artificial diet
Description: To assess whether tryptamine was acutely toxic to whitefly, artificial feeding studies were conducted in which whiteflies were fed artificial diets supplemented with a range of tryptamine concentrations.

[3] = test system: Phytophthora parasitica (vinca); details: vinca isolate, 24 hrs
Fusarium solani = details: 24 h
[4] = test system: ethylene-induced epinasty; details: plants sprayed with 4 mM solution, 18 hrs later exposed to ethylene for 24 hours
Description: To test for ethylene sensitivity, untransformed and transgenic poinsettia plants were exposed to 15 μl/liter ethylene for 24 hours to induce epinasty.
At 18 hrs after STS treatment, the STS-treated poinsettias were exposed to ethylene for 24 hours.

[5] = petunia isolate, germinated spores, 24 hrs

Compound: GIGKFLKSAKKFGKAFVKILNS [MSI-99]
- Minimum Inhibitory Concentration ([1]; 24 h): 8 to 16 µg/mL
- Minimum Inhibitory Concentration (Fusarium graminearum): 4 µg/mL
- Minimum Inhibitory Concentration (Thielaviopsis basicola): 4 µg/mL
- Minimum Inhibitory Concentration (Botrytis cinerea): 8 µg/mL
- Minimum Inhibitory Concentration (Rhyzoctonia solani R2): 16 µg/mL

Compound: GIGKFLHSAKKFGKAFVGEIMNS [Mag 2, magainin 2, reference compound]
- Minimum Inhibitory Concentration (Pseudomonas syringae): 32 µg/mL
- Minimum Inhibitory Concentration (Erwinia carotovora): 32 µg/mL
- Minimum Inhibitory Concentration ([1]; 24 h): >128 µg/mL
- Minimum Inhibitory Concentration (Fusarium graminearum): 4 to 8 µg/mL
- Minimum Inhibitory Concentration (Rhyzoctonia solani R2): 16 to 32 µg/mL

Compound: MSI-55 (KIAGKIAKIAGKIAKIAGKIA)
- antibacterial and anti-fungal activity in vitro [2]: potent antibacterial and anti-fungal activity

Compound: NCCc1c[nH]c2ccccc12 [Tryptamine, tryptamine]
- tryptamine concentration toxic to Bemisia (Bemisia): 50 to 100 µg/mL

Compound: GMASKAGAIAGKIAKVALKAL-OH [PGL]
- Minimum Inhibitory Concentration (Pseudomonas syringae): >64 µg/mL
- Minimum Inhibitory Concentration (Erwinia carotovora): 32 µg/mL
- Minimum Inhibitory Concentration ([3]; germinated spores): >128 µg/mL
- Minimum Inhibitory Concentration ([3]; non-germinated spores): >256 µg/mL
- Minimum Inhibitory Concentration [1, 5]: >128 µg/mL
- Minimum Inhibitory Concentration (Fusarium graminearum): 4 to 8 µg/mL
- Minimum Inhibitory Concentration (Rhyzoctonia solani R2): 16 to 32 µg/mL

Compound: KRKRAVKRVGRRLKKLARKIARLGVAF [Line D5-C, D5-C]
- Minimum Inhibitory Concentration ([3]; germinated spores): 16 to 32 µg/mL
- Minimum Inhibitory Concentration ([3]; non-germinated spores): 16 µg/mL
- Minimum Inhibitory Concentration [1, 5]: 16 to 32 µg/mL
- Minimum Inhibitory Concentration (Fusarium solani): 4 µg/mL
- Minimum Inhibitory Concentration (Thielaviopsis basicola): 16 µg/mL
- Minimum Inhibitory Concentration (Rhyzoctonia solani R2): 32 to 64 µg/mL

Compound: silver thiosulfate [STS]
- signs of epinasty or wilting after ethylene treatment [4]: little, if any, signs of epinasty or wilting
